# Data published in US8673265B2, “Carbonylporphyrins and uses thereof” (Brookhaven Science Associates, LLC, priority 2006, dated 2014).
# What was measured:
# EMT-6 mammary carcinomas = test: Biodistribution (boron concentrations in tissues) in mice bearing EMT-6 carcinomas; assay type: in vivo, BALB/c mice; settings: for Average boron concentration, Blood / Average boron concentration, Brain / Average boron concentration, Heart / Average boron concentration, Kidneys / Average boron concentration, Liver / Average boron concentration, Skin (pinna) / Average boron concentration, Spleen / Average boron concentration, Tumor / Average boron concentration, Feces / Average boron concentration, Lungs: 3 i.p. injections over 8 hours
# Protocol: BALB/c mice bearing subcutaneously implanted EMT-6 mammary carcinomas implanted on the dorsal thorax were given a total dose of 105 milligrams porphyrin compound V per kilogram body weight (23.7 mg B/kg). At one and two days after the last injection, mice were euthanized, and tumor, blood, brain, and liver were removed for boron analyses. The blood was first analyzed for hematologic parameters that indicate toxicity before it was analyzed for boron.
# Similar to Example 8, Compound VII was given, to tumor-bearing mice except at a slightly higher total dose of 143 mg/kg body weight in 3 i.p. injections given over a period of 8 hours.
# [1] = Weight changes and hematologic parameters in mice; assay type: in vivo, BALB/c mice
# [2] = 105 mg/kg (23.7 mg B/kg), 1 day after last injection
# [3] = 105 mg/kg (23.7 mg B/kg), 2 days after last injection
# [4] = 143 mg/kg (30 mg B/kg), 1 day after last injection
# [5] = 143 mg/kg (30 mg B/kg), 2 days after last injection
substance,measurement,setting,value
"Copper (II) 5,15-dinitro-10,20-bis(3-[o-carboranylmethoxy]phenyl)porphyrin [Porphyrin compound V]","Average boron concentration, Blood",EMT-6 mammary carcinomas; [2],34.6 ± 26.9 μg B/g
same,"Average boron concentration, Brain",EMT-6 mammary carcinomas; [2],0.5 ± 0.4 μg B/g
same,"Average boron concentration, Heart",EMT-6 mammary carcinomas; [2],9.1 ± 3.8 μg B/g
same,"Average boron concentration, Kidneys",EMT-6 mammary carcinomas; [2],12.7 ± 6.9 μg B/g
same,"Average boron concentration, Liver",EMT-6 mammary carcinomas; [2],145 ± 18 μg B/g
same,"Average boron concentration, Skin (pinna)",EMT-6 mammary carcinomas; [2],3.6 ± 13.0 μg B/g
same,"Average boron concentration, Spleen",EMT-6 mammary carcinomas; [2],76.1 ± 8.6 μg B/g
same,"Average boron concentration, Tumor","EMT-6 mammary carcinomas; 105 mg/kg (23.7 mg B/kg), 1 day after last injection, wet tissue",39.2 ± 14.4 μg B/g
same,"Average boron concentration, Blood",EMT-6 mammary carcinomas; [3],1.5 ± 0.4 μg B/g
same,"Average boron concentration, Brain",EMT-6 mammary carcinomas; [3],0.1 ± 0.1 μg B/g
same,"Average boron concentration, Feces",EMT-6 mammary carcinomas; [3],15.2 ± 20.8 μg B/g
same,"Average boron concentration, Heart",EMT-6 mammary carcinomas; [3],7.5 ± 0.6 μg B/g
same,"Average boron concentration, Kidneys",EMT-6 mammary carcinomas; [3],7.1 ± 0.5 μg B/g
same,"Average boron concentration, Liver",EMT-6 mammary carcinomas; [3],226 ± 25 μg B/g
same,"Average boron concentration, Lungs",EMT-6 mammary carcinomas; [3],8.5 ± 3.0 μg B/g
same,"Average boron concentration, Skin (pinna)",EMT-6 mammary carcinomas; [3],4.8 ± 1.6 μg B/g
same,"Average boron concentration, Spleen",EMT-6 mammary carcinomas; [3],158 ± 19 μg B/g
same,"Average boron concentration, Tumor",EMT-6 mammary carcinomas; [3],49.8 ± 12.9 μg B/g
same,amount of boron delivered to the tumor,EMT-6 mammary carcinomas; porphyrin dose ~100 mg/kg (24 mg/kg B),~50 ppm
same,percentage of injected dose in tumor per gram of wet tissue,"EMT-6 mammary carcinomas; ~100 mg/kg (24 mg/kg B), EMT-6 tumor model",~10.5 %/g
same,% Weight change,[1]; [2],−0.8 ± 1.8%
same,Platelet count,[1]; [2],1349 ± 294 m/m^3
same,White blood count,[1]; [2],9.9 ± 2.6 m/m^3
same,% Weight change,[1]; [3],−1.7 ± 1.7%
same,Platelet count,[1]; [3],515 ± 160 m/m^3
same,White blood count,[1]; [3],11.8 ± 1.8 m/m^3
"copper (II) 5,15-dibromo-10,20-bis(3-[o-carboranylmethoxy]phenyl)porphyrin [Porphyrin compound VII]","Average boron concentration, Blood",EMT-6 mammary carcinomas; [4],105 ± 20 μg B/g
same,"Average boron concentration, Brain",EMT-6 mammary carcinomas; [4],1.9 ± 0.5 μg B/g
same,"Average boron concentration, Feces",EMT-6 mammary carcinomas; [4],11.2 ± 2.3 μg B/g
same,"Average boron concentration, Heart",EMT-6 mammary carcinomas; [4],20.4 ± 4.6 μg B/g
same,"Average boron concentration, Kidneys",EMT-6 mammary carcinomas; [4],38.7 ± 7.0 μg B/g
same,"Average boron concentration, Liver",EMT-6 mammary carcinomas; [4],183 ± 19 μg B/g
same,"Average boron concentration, Lungs",EMT-6 mammary carcinomas; [4],35.8 ± 3.7 μg B/g
same,"Average boron concentration, Skin (pinna)",EMT-6 mammary carcinomas; [4],9.2 ± 1.8 μg B/g
same,"Average boron concentration, Spleen",EMT-6 mammary carcinomas; [4],107 ± 11 μg B/g
same,"Average boron concentration, Tumor",EMT-6 mammary carcinomas; [4],67.1 ± 8.5 μg B/g
same,"Average boron concentration, Blood",EMT-6 mammary carcinomas; [5],12.1 ± 9.7 μg B/g
same,"Average boron concentration, Brain",EMT-6 mammary carcinomas; [5],0.1 ± 0.2 μg B/g
same,"Average boron concentration, Feces",EMT-6 mammary carcinomas; [5],4.9 ± 0.6 μg B/g
same,"Average boron concentration, Heart",EMT-6 mammary carcinomas; [5],9.4 ± 1.1 μg B/g
same,"Average boron concentration, Kidneys",EMT-6 mammary carcinomas; [5],13.0 ± 3.6 μg B/g
same,"Average boron concentration, Liver",EMT-6 mammary carcinomas; [5],263 ± 34 μg B/g
same,"Average boron concentration, Lungs",EMT-6 mammary carcinomas; [5],17.8 ± 6.2 μg B/g
same,"Average boron concentration, Skin (pinna)",EMT-6 mammary carcinomas; [5],7.7 ± 1.7 μg B/g
same,"Average boron concentration, Spleen",EMT-6 mammary carcinomas; [5],160 ± 15 μg B/g
same,"Average boron concentration, Tumor",EMT-6 mammary carcinomas; [5],76.9 ± 14.1 μg B/g
same,% Weight change,[1]; [4],−0.3 ± 1.4%
same,Platelet count,[1]; [4],1461 ± 229 m/m^3
same,White blood count,[1]; [4],8.8 ± 1.3 m/m^3
same,% Weight change,[1]; [5],0.2 ± 2.2%
same,Platelet count,[1]; [5],790 ± 227 m/m^3
same,White blood count,[1]; [5],11.8 ± 1.8 m/m^3
same,toxicity associated with the porphyrin,[1]; 143 mg/kg dose,little if any toxicity
